pKd: −log10 of the molar value. Where “and” joins values, the source holds several entries; their conditions need not be identical. Equal entries are not always repeated.
Experiments:
[1] = target: W9 probe (tandem repeats of an oligonucleotide with a 9 bp AT-tract); test: DNase I footprinting on probe W9; assay type: binding
Text: DNase I cleavage pattern in the presence of P9 and P7. Ligand concentrations are indicated at the top of each lane. The position of each of the AT-tracts is indicated by square brackets. […] This probe is composed of head-to-tail tandem repeats of an oligonucleotide with a 9 bp AT-tract.
(§1) Synthetic oligonucleotides […] and […] were hybridized to obtain the W9 probe, oligomerized by ligation and digested with BamHI and BglII to obtain different tandem repeats. The following oligonucleotides were prepared identically: GAF31 is composed of the oligonucleotides […] and […] and, BrownI of oligonucleotides […] and […]. Fragments were purified on low-melt agarose gels and then cloned into a modified pSP64 vector, cut by BamHI and BglII. End-labeling was carried out following digestion with HindIII and a fill-in reaction with Klenow DNA polymerase. The labeled plasmid was cut with PvuII and the target fragments purified from low-melting agarose gels. The 657 bp EcoR1/Hinf1 fragment of the Drosophila histone SAR was cloned into the SmaI site of the modified pSP64 plasmid. This SAR probe was end-labeled following-digestion with EcoR1, then cut with ClaI and the resulting 347 bp fragment purified from low-melting agarose gels.
All reactions were performed in a total volume of 40 μl. A polyamide stock solution or buffer (for reference lanes) was added to an assay buffer containing 20 kcpm radiolabeled DNA, affording final concentrations of 10 mM Tris-HCl (pH 7.4), 10 mM KCl, 10 MM MgCl, 5 mM CaCl2, 0.5 mM EDTA, 0.5 mM EGTA, 1 mM DTT and 0.1% digitonine. The solutions were allowed to equilibrate for at least 2 h at room temperature. Footprinting reactions were initiated by the addition of 2 μl of a DNase stock solution (containing −100 μg DNase I in buffer) and allowed to proceed for 2 min at room temperature. The reactions were stopped by addition of 10 μl of a solution containing 1.25 M NaCl, 100 mM EDTA. Next, 5 μl of a 1% SDS solution was added, followed by 2 μl of a solution containing 1 μg poly(dA-dT), 1 μg salmon sperm DNA and 10 μg glycogen and the DNA was ethanol precipitated (20 min at −20 C.). The reactions were resuspended in 4 μl of 80% formamide loading buffer, denatured 10 min at 85 C., cooled on ice and electrophoresed on 8% polyacrylamide denaturing gels (5% cross-link, 8 M urea) at 30 W for 1 h. The gels were dried and exposed o/n at −70 C.

CACAA repeats = test: DNase I footprinting on CACAA repeats (Brown I probe); assay type: binding
Text: A drawback of this binding model, as opposed to conventional 2:1 drug to DNA complexes, is that P31 is expected to bind degenerate GC and CG base pairs, albeit with different affinity. The consensus sequence can thus be defined as SWSWWSWSWW, where S stands for a G or C and W for A or T. To evaluate binding of P31 to CACAA repeats, we used a second probe that contains two of these repeats as well as five tandem GAGAA repeats. […] Again, it is observed than this molecule binds as a 1:1 drug to DNA complex in an orientation as indicated by arrowheads (FIG. 3A). We propose that special structural features of AT-tracts and GAGAA repeats might favor 1:1 DNA to drug complexes.
as §1, with “The 657 bp EcoR1/Hinf1 fragment of the Drosophila histone SAR was cloned into the SmaI site of the modified pSP64 plasmid. This SAR probe was end-labeled following-digestion with EcoR1, then cut with ClaI and the resulting 347 bp fragment purified from low-melting agarose gels.” left out

[2] = system: homozygous bw^D/bw^D flies; test: P31 fed to developing homozygous brown-dominant flies; assay type: in vivo
Protocol: These experiments established a remarkable molecular interplay between the GAGAA insert of the bw^D allele and its target-compound P31.
Drug treatments of the bw^D flies were performed as for w^m4 flies except that 30 parental females were allowed to lay eggs. To obtain the heterozygous bw^D/+; st/st progeny, 30 virgin bw^D/bw^D; st/st homozygous females were mated with scarlet homozygous males for about 5 days before transferring them to experimental vials for egg laying.
(§2) The lethality of the progenies was calculated by counting the dead bodies and the total empty pupal shells. The A6 to A5 transformation was detected by bristles that form on abdominal segment A6 on males. All male adult flies obtained (˜50) were scored. Sex combs and halteres were individually inspected and photographed under the microscope (Axiophot, Zeiss) after dissecting at least 30 individuals and incubating them into 30 μl of 0.6 g/ml gum arabic; 4 g/ml chlorohydrate; 35% glycerol under a 24×24 mm coverslip as described (Ashburner, 1989). Since raising double heterozygous flies (Ubx^1/+; bw^D/+) led to lethality, we morphologically dissected eight late stage pupae after carefully removing the pupal envelope.

Ubx^1/+ flies = test: P31 fed to developing Ubx^1/+ flies; assay type: in vivo, Drosophila melanogaster
Text: (§3) P31 enhances haltere-to-wing transformation in heterozygous bw^D/bw; Ubx^1/+ flies: The GAGA factor is know to bind to the promoter of Ubx and to stimulate its transcription in vitro (Biggin and Tjian, 1988) The Trl locus also genetically interacts with Ubx, since Trl^13C dominantly enhances the segmental transformation observed in Ubx heterozygotes. […] We asked, does P31 also chemically mimic the genetic interaction of Ubx and Trl^13C? To address this issue, we fed P31 to two genotypes, +/+; Ubx/+ and bw^D/bw^D; Ubx^1/+. The latter genotype was obtained by crossing bw^D/bw^D; st/st females and bw^D/bw^D Ubx^1/Tm3, sb males.
as §2

bw^D/bw^D; Ubx^1/+ flies = test: P31 fed to developing Ubx^1/+; bw^D flies; assay type: in vivo, Drosophila melanogaster
Text: as §3
The progeny of these two genotypes raised in the presence of P31 were scored both for the A6 to A5 and the haltere-to-wing transformations as well as for the sex comb reduced phenotypes (Table 3). […] However, eight of them (out of approximately 100) reached a late pupae stage and thus could be dissected to inspect their morphology. […] This transformation was manifested by an enlarged size and gray color of the halteres, and also by the appearance of numerous bristles at the base of the halteres that are characteristic of the anterior wing margin. […] We conclude that the chemical mimicry by P31 in a bw^D genetic backgrounds extends to the genetic interaction of Trl^13C with Ubx.
as §2

[3] = fly stock of r12, bw^D/bw^+, homozygous per text

CN(C)CCCNC(=O)CCNC(=O)c1cc(NC(=O)c2cc(NC(=O)c3cc(NC(=O)CCNC(=O)c4cc(NC(=O)c5cc(NC(=O)c6cccn6C)cn5C)cn4C)cn3C)cn2C)cn1C [Compound P9, PyPyPy-β-PyPyPy-β-Dp]
affinity for AT-tracts of 9 Ws (in words) [1]: subnanomolar affinity
better affinity for W9 than P7 ([1]; P9 versus P7, footprints on W9): 100 fold
pKd ([1]; apparent binding affinity, DNase I footprinting, probe W9, read-out: Kdapp W9): ~9.12 and 9.12

CN(C)CCCNC(=O)CCNC(=O)c1nc(NC(=O)CCNC(=O)c2nc(NC(=O)CCNC(=O)c3cc(NC(=O)c4nc(NC(=O)CCNC(=O)c5nccn5C)cn4C)cn3C)cn2C)cn1C [Compound P31, Im-β-Im-Py-β-Im-β-Im-β-Dp]
affinity for CACAA repeats relative to GAGAA repeats (CACAA repeats): approximately five fold lower affinity
A6 to A5 [2, 3]: 100%
Lethality [2, 3]: 66%
Sex comb, range of teeth [2, 3]: 6-9
Sex comb (mean) ([2]; fly stock of r12, bw^D/bw^+, text: homozygous): 7.2
A6 to A5, number of bristles on A6 ([2]; fly stock of r12, bw^D/bw^+, text: homozygous bw^D males): 3-10
sex comb teeth, number mostly found ([2]; homozygous bw^D): 6
progeny that died at the pupal stage ([2]; homozygous bw^D flies): about two thirds
Pupae delay (hrs) ([2]; in vivo): ≥ 65 hrs-∞
delay of hatching ([2]; in vivo): 65 to 75 h
A6 to A5 (Ubx^1/+ flies; fly stock Ubx^1/+): 0%
Lethality (Ubx^1/+ flies; fly stock Ubx^1/+): 10%
Sex comb (mean) (Ubx^1/+ flies; fly stock Ubx^1/+): 10.3
Sex comb, range of teeth (Ubx^1/+ flies; fly stock Ubx^1/+): 8-12
alteration of phenotype (in words) (Ubx^1/+ flies; progeny of Ubx^1/+ flies): no altered phenotype
pupae with clear signs of haltere-to-wing transformation (bw^D/bw^D; Ubx^1/+ flies; bw^D/bw^D, Ubx^1/+, dissected late pupae): five of eight
A6 to A5 (bw^D/bw^D; Ubx^1/+ flies; fly stock Ubx^1/+, bw^D): 100%
Lethality (bw^D/bw^D; Ubx^1/+ flies; fly stock Ubx^1/+, bw^D): 100%
Sex comb (mean) (bw^D/bw^D; Ubx^1/+ flies; fly stock Ubx^1/+, bw^D): 7.4
Sex comb, range of teeth (bw^D/bw^D; Ubx^1/+ flies; fly stock Ubx^1/+, bw^D): 5-9
A6 to A5, number of bristles on A6 (bw^D/bw^D; Ubx^1/+ flies; fly stock Ubx^1/+, bw^D, dissected late pupae): 2-6
effect on development (in words) (bw^D/bw^D; Ubx^1/+ flies; in vivo): blocked their development completely
